PubChem BioAssay AID248 (DTP/NCI, 2004)
Values joined by “and” are separate entries in the source; they are usually repeats but may differ in a detail not shown here. Identical values can stand only once. Toxic doses and inconclusive results are not listed. Cut-off read from the data, not from the text of the source: active = T/C of 150% or more; inactive = T/C below 125%.

Tested on: L1210 leukemia ip in BDF1 mice, survival T/C
Assay: NCI In Vivo Anticancer Drug Screen. Data for tumor model L1210 Leukemia (intraperitoneal) in B6D2F1 (BDF1) mice
Details: endpoint: mean survival time, higher = longer survival
Procedure, shortened: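 Survival endpoint. Drug-treated group vs vehicle group, expressed as T divided by C. Tumor passaged by transplantation.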

[1] = dose: 100.0 mg/kg/injection, schedule: Q04DX003 (ip), vehicle: saline
[2] = dose: 200.0 mg/kg/injection, schedule: Q04DX003 (ip), vehicle: saline
[3] = dose: 100.0 mg/kg/injection, schedule: Q04DX003 (ip), vehicle: saline with Tween-80
[4] = dose: 200.0 mg/kg/injection, schedule: Q04DX003 (ip), vehicle: saline with Tween-80
[5] = dose: 400.0 mg/kg/injection, schedule: Q04DX002 (ip), vehicle: saline with Tween-80
[6] = dose: 400.0 mg/kg/injection, schedule: Q04DX003 (ip), vehicle: saline with Tween-80
[7] = dose: 100.0 mg/kg/injection, schedule: Q01DX001 (ip), vehicle: saline with Tween-80
[8] = dose: 200.0 mg/kg/injection, schedule: Q01DX001 (ip), vehicle: saline with Tween-80
[9] = dose: 100.0 mg/kg/injection, schedule: Q01DX009 (ip), vehicle: Klucel (hydroxypropylcellulose) (HPC)
[10] = dose: 200.0 mg/kg/injection, schedule: Q01DX009 (ip), vehicle: Klucel (hydroxypropylcellulose) (HPC)
[11] = dose: 50.0 mg/kg/injection, schedule: Q01DX009 (ip), vehicle: saline with Tween-80
[12] = dose: 100.0 mg/kg/injection, schedule: Q01DX009 (ip), vehicle: saline with Tween-80
[13] = dose: 100.0 mg/kg/injection, schedule: Q04DX003 (ip), vehicle: Klucel (hydroxypropylcellulose) (HPC)
[14] = dose: 200.0 mg/kg/injection, schedule: Q04DX003 (ip), vehicle: Klucel (hydroxypropylcellulose) (HPC)
[15] = dose: 400.0 mg/kg/injection, schedule: Q04DX003 (ip), vehicle: Klucel (hydroxypropylcellulose) (HPC)
[16] = dose: 200.0 mg/kg/injection, schedule: Q01DX009 (ip), vehicle: saline with Tween-80

Measured: T/C

C=CCOC(=O)COCC(=O)OCC=C
inactive: [1] 97 % of control | [2] 88 % of control

C=CCN(CC=C)c1nc(-c2ccccc2)nc(-c2ccccc2)n1
inactive: dose: 25.6 mg/kg/injection, schedule: Q04DX002 (ip), vehicle: saline with Tween-80 93 % of control | dose: 64.0 mg/kg/injection, schedule: Q04DX002 (ip), vehicle: saline with Tween-80 93 % of control | [3] 92 % of control | dose: 160.0 mg/kg/injection, schedule: Q04DX002 (ip), vehicle: saline with Tween-80 93 % of control | [4] 92 % of control | [5] 89 % of control | [6] 92 % of control

O=C(O)c1ccc(OCCOc2ccc([N+](=O)[O-])cc2)c(Cl)c1
inactive: dose: 100.0 mg/kg/injection, schedule: Q01DX001 (ip), vehicle: carboxymethylcellulose (CMC) 95 % of control and 105 % of control | dose: 100.0 mg/kg/injection, schedule: Q01DX009 (ip), vehicle: carboxymethylcellulose (CMC) 92 % of control and 89 % of control | dose: 100.0 mg/kg/injection, schedule: Q04DX002 (ip), vehicle: gum acacia 101 % of control | dose: 100.0 mg/kg/injection, schedule: Q04DX003 (ip), vehicle: carboxymethylcellulose (CMC) 95 % of control and 86 % of control | dose: 200.0 mg/kg/injection, schedule: Q01DX001 (ip), vehicle: carboxymethylcellulose (CMC) 101 % of control and 103 % of control | dose: 200.0 mg/kg/injection, schedule: Q01DX009 (ip), vehicle: carboxymethylcellulose (CMC) 93 % of control and 100 % of control | dose: 200.0 mg/kg/injection, schedule: Q04DX002 (ip), vehicle: gum acacia 98 % of control and 99 % of control | dose: 200.0 mg/kg/injection, schedule: Q04DX003 (ip), vehicle: carboxymethylcellulose (CMC) 95 % of control and 90 % of control | dose: 400.0 mg/kg/injection, schedule: Q01DX001 (ip), vehicle: carboxymethylcellulose (CMC) 100 % of control | dose: 400.0 mg/kg/injection, schedule: Q04DX002 (ip), vehicle: gum acacia 94 % of control and 98 % of control | dose: 400.0 mg/kg/injection, schedule: Q04DX003 (ip), vehicle: carboxymethylcellulose (CMC) 90 % of control and 91 % of control

CCCCCCCCCCCCCCCCCC(=O)C(C(=O)OCC)C(=O)OCC
inactive: dose: 100.0 mg/kg/injection, schedule: Q01DX001 (ip), vehicle: other 93 % of control | dose: 200.0 mg/kg/injection, schedule: Q01DX001 (ip), vehicle: other 88 % of control | dose: 400.0 mg/kg/injection, schedule: Q01DX001 (ip), vehicle: other 90 % of control

CCCCCCCCCCCCCCCC/C(C)=C\C(=O)OC
inactive: dose: 100.0 mg/kg/injection, schedule: Q04DX003 (ip), vehicle: other 93 % of control | dose: 200.0 mg/kg/injection, schedule: Q04DX003 (ip), vehicle: other 93 % of control | dose: 400.0 mg/kg/injection, schedule: Q04DX003 (ip), vehicle: other 93 % of control

Cn1cnc([N+](=O)[O-])c1Sc1c[nH]c(=O)[nH]c1=O
inactive: dose: 25.0 mg/kg/injection, schedule: Q04DX003 (ip), vehicle: saline 107 % of control | dose: 50.0 mg/kg/injection, schedule: Q04DX003 (ip), vehicle: saline 96 % of control | [1] 104 % of control | [2] 93 % of control | dose: 400.0 mg/kg/injection, schedule: Q04DX003 (ip), vehicle: saline 94 % of control

CCOC(=O)C(C)Oc1cccc(O)c1[N+](=O)[O-] (stereo not drawn)
inactive: [7] 95 % of control | [8] 97 % of control | dose: 400.0 mg/kg/injection, schedule: Q01DX001 (ip), vehicle: saline with Tween-80 90 % of control

CC(C)(Br)CNC(=O)c1cccc([N+](=O)[O-])c1
inactive: dose: 75.0 mg/kg/injection, schedule: Q01DX009 (ip), vehicle: Klucel (hydroxypropylcellulose) (HPC) 103 % of control | dose: 75.0 mg/kg/injection, schedule: Q04DX003 (ip), vehicle: Klucel (hydroxypropylcellulose) (HPC) 95 % of control | dose: 150.0 mg/kg/injection, schedule: Q01DX009 (ip), vehicle: Klucel (hydroxypropylcellulose) (HPC) 101 % of control | dose: 150.0 mg/kg/injection, schedule: Q04DX003 (ip), vehicle: Klucel (hydroxypropylcellulose) (HPC) 97 % of control | dose: 300.0 mg/kg/injection, schedule: Q01DX009 (ip), vehicle: Klucel (hydroxypropylcellulose) (HPC) 86 % of control | dose: 300.0 mg/kg/injection, schedule: Q04DX003 (ip), vehicle: Klucel (hydroxypropylcellulose) (HPC) 92 % of control

O=C(/C=C/c1ccccc1)N/N=C/c1cccs1
inactive: [9] 86 % of control | [10] 88 % of control

O=C1C(N2CCCCC2)=C(N2CC2)C(=O)C(N2CCCCC2)=C1N1CC1
inactive: dose: 0.39 mg/kg/injection, schedule: Q04DX003 (ip), vehicle: saline 94 % of control and 96 % of control | dose: 0.78 mg/kg/injection, schedule: Q04DX003 (ip), vehicle: saline 100 % of control and 103 % of control | dose: 1.56 mg/kg/injection, schedule: Q04DX003 (ip), vehicle: saline 103 % of control and 107 % of control | dose: 3.12 mg/kg/injection, schedule: Q04DX003 (ip), vehicle: saline 103 % of control and 107 % of control | dose: 6.25 mg/kg/injection, schedule: Q04DX003 (ip), vehicle: saline 96 % of control and 100 % of control | dose: 10.0 mg/kg/injection, schedule: Q01DX001 (ip), vehicle: saline 86 % of control | dose: 12.5 mg/kg/injection, schedule: Q04DX003 (ip), vehicle: saline 103 % of control and 122 % of control | dose: 20.0 mg/kg/injection, schedule: Q01DX001 (ip), vehicle: saline 99 % of control | dose: 35.0 mg/kg/injection, schedule: Q04DX003 (ip), vehicle: saline 101 % of control | dose: 40.0 mg/kg/injection, schedule: Q01DX001 (ip), vehicle: saline 93 % of control | dose: 55.0 mg/kg/injection, schedule: Q04DX003 (ip), vehicle: saline 90 % of control | dose: 80.0 mg/kg/injection, schedule: Q01DX001 (ip), vehicle: saline 108 % of control | dose: 80.0 mg/kg/injection, schedule: Q04DX003 (ip), vehicle: saline 88 % of control

Nc1nc(N)c(-c2ccc(Cl)cc2)c(C(=O)O)n1
inactive: dose: 25.0 mg/kg/injection, schedule: Q01DX009 (ip), vehicle: saline with Tween-80 90 % of control | [11] 97 % of control | [12] 93 % of control and 103 % of control

[N-]=[N+]=Nc1cccc[n+]1[O-]
inactive: [13] 105 % of control | [14] 109 % of control | [15] 105 % of control

CCOc1ccc(Br)cc1/C=C1\N=C(c2ccccc2)OC1=O
inactive: [9] 93 % of control and 95 % of control | [13] 97 % of control and 98 % of control | [10] 93 % of control and 98 % of control | [14] 98 % of control and 89 % of control | dose: 400.0 mg/kg/injection, schedule: Q01DX009 (ip), vehicle: Klucel (hydroxypropylcellulose) (HPC) 96 % of control and 86 % of control | [15] 93 % of control and 98 % of control

C=CCOC(=O)c1ccccc1N
inactive: [12] 98 % of control | [3] 104 % of control | [16] 98 % of control | [4] 101 % of control

c1cnc2c(c1)CCCC2
inactive: [11] 86 % of control | [16] 86 % of control

CCOP(=O)(Cc1ccc(N(CCI)CCI)cc1)OCC
inactive: dose: 75.0 mg/kg/injection, schedule: Q01DX001 (ip), vehicle: saline 116 % of control | dose: 150.0 mg/kg/injection, schedule: Q01DX001 (ip), vehicle: saline 116 % of control

[Cl][Cd][Cl].c1ccc(N=P(c2ccccc2)(c2ccccc2)c2ccccc2)cc1
inactive: dose: 9.38 mg/kg/injection, schedule: Q01DX001 (ip), vehicle: other 105 % of control

CCC(C(=O)OC)C1CCCCC1 (stereo not drawn)
inactive: [12] 100 % of control | [3] 103 % of control | [16] 87 % of control | [4] 95 % of control | dose: 400.0 mg/kg/injection, schedule: Q01DX009 (ip), vehicle: saline with Tween-80 92 % of control | [6] 95 % of control

N=C(CCCc1ccccc1)SCc1ccccc1
inactive: [11] 103 % of control | dose: 50.0 mg/kg/injection, schedule: Q04DX003 (ip), vehicle: saline with Tween-80 94 % of control | [7] 102 % of control | [12] 92 % of control | [3] 93 % of control | [8] 102 % of control

CC1=C(C#N)C(C)(C)c2ccccc21
inactive: dose: 100.0 mg/kg/injection, schedule: Q04DX002 (ip), vehicle: saline with Tween-80 110 % of control | dose: 200.0 mg/kg/injection, schedule: Q04DX002 (ip), vehicle: saline with Tween-80 100 % of control | [5] 100 % of control

CN(C(=O)c1ccc(C(=N)N)cc1)c1ccccc1
inactive: [7] 100 % of control | [8] 100 % of control
